Tests used:
[1] = system: NCI-60 cancer cell line panel; test: NCI-60 SRB assay, whole panel; assay type: cell-based, human; conditions: 10 µM, 48 h
Method: (§1) Primary anticancer assay was performed on a panel of 60 human cancer cell lines derived from nine neoplastic diseases, in accordance with the protocol of the Drug Evaluation Branch, National Cancer Institute, Bethesda, Maryland, USA[22]. Cells were incubated with tested compounds at 10 µM for 48 h. The growth percentage was evaluated spectrophotometrically using a protein binding dye, SRB. Results for each tested compound were reported as the percent of growth of treated cells when compared to untreated control cells.
(§2) To better compare the activity profile of these two series of compounds, compounds 5 and 8 were selected and then evaluated towards a panel of sixty cancer cell lines corresponding to nine different cancer types, i.e. leukaemia, melanoma, as well as lung, colon, central nervous system, ovarian, renal, prostate and breast cancers (NCI evaluation). Indeed, it is now well established that the growth inhibitory patterns of anticancer drugs against the NCI-60 cell line panel correlated well with their modes of action. For example, compounds that bind to tubulin have similar growth inhibition patterns regardless of which site on tubulin they bind[30]. […] Compounds were tested using the sulforhodamine B (SRB) assay that provides a direct cell density index. The amount of dye incorporated by the cells increases with the increase of the total protein biomass. Cells were incubated for 48 h with compounds at 10 µM concentration, then cell growth was evaluated spectrophotometrically and presented as the percent of untreated control cells. Values of the most sensitive cell lines were compared to those obtained with JMV5038 (Figure 4, for all data see SI).

CCRF-CEM = test: NCI-60 SRB assay, CCRF-CEM (Leukemia); assay type: cell-based, human; conditions: 10 µM, 48 h
Method: as §1, §2

EKVX = test: NCI-60 SRB assay, EKVX (NSCLC); assay type: cell-based, human; conditions: 10 µM, 48 h
Method: as §1, §2

HOP-92 = test: NCI-60 SRB assay, HOP-92 (NSCLC); assay type: cell-based, human; conditions: 10 µM, 48 h;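 on Mean G% - G%: mean growth across the NCI-60 panel minus this line's growth with positive meaning more sensitive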
Method: as §1, §2

NCI-H322M = test: NCI-60 SRB assay, NCI-H322M (NSCLC); assay type: cell-based, human; conditions: 10 µM, 48 h
Method: as §1, §2

NCI-H522 = test: NCI-60 SRB assay, NCI-H522 (NSCLC); assay type: cell-based, human; conditions: 10 µM, 48 h
Method: as §1, §2

HCC-2998 = test: NCI-60 SRB assay, HCC-2998 (Colon Cancer); assay type: cell-based, human; conditions: 10 µM, 48 h;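 on Mean G% - G%: mean growth across the NCI-60 panel minus this line's growth with positive meaning more sensitive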
Method: as §1, §2

HCT-15 = test: NCI-60 SRB assay, HCT-15 (Colon Cancer); assay type: cell-based, human; conditions: 10 µM, 48 h
Method: as §1, §2

SW-620 = test: NCI-60 SRB assay, SW-620 (Colon Cancer); assay type: cell-based, human; conditions: 10 µM, 48 h
Method: as §1, §2

SF-268 = test: NCI-60 SRB assay, SF-268 (CNS Cancer); assay type: cell-based, human; conditions: 10 µM, 48 h
Method: as §1, §2

SNB-19 = test: NCI-60 SRB assay, SNB-19 (CNS Cancer); assay type: cell-based, human; conditions: 10 µM, 48 h
Method: as §1, §2

SNB-75 = test: NCI-60 SRB assay, SNB-75 (CNS Cancer); assay type: cell-based, human; conditions: 10 µM, 48 h
Method: as §1, §2

U251 = test: NCI-60 SRB assay, U251 (CNS Cancer); assay type: cell-based, human; conditions: 10 µM, 48 h
Method: as §1, §2

M14 = test: NCI-60 SRB assay, M14 (Melanoma); assay type: cell-based, human; conditions: 10 µM, 48 h
Method: as §1, §2

SK-MEL-2 = test: NCI-60 SRB assay, SK-MEL-2 (Melanoma); assay type: cell-based, human; conditions: 10 µM, 48 h
Method: as §1, §2

UACC-257 = test: NCI-60 SRB assay, UACC-257 (Melanoma); assay type: cell-based, human; conditions: 10 µM, 48 h
Method: as §1, §2

UACC-62 = test: NCI-60 SRB assay, UACC-62 (Melanoma); assay type: cell-based, human; conditions: 10 µM, 48 h
Method: as §1, §2

OVCAR-3 = test: NCI-60 SRB assay, OVCAR-3 (Ovarian Cancer); assay type: cell-based, human; conditions: 10 µM, 48 h;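 on Mean G% - G%: mean growth across the NCI-60 panel minus this line's growth with positive meaning more sensitive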
Method: as §1, §2

OVCAR-5 = test: NCI-60 SRB assay, OVCAR-5 (Ovarian Cancer); assay type: cell-based, human; conditions: 10 µM, 48 h;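 on Mean G% - G%: mean growth across the NCI-60 panel minus this line's growth with positive meaning more sensitive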
Method: as §1, §2

786-0 = test: NCI-60 SRB assay, 786-0 (Renal Cancer); assay type: cell-based, human; conditions: 10 µM, 48 h
Method: as §1, §2

A498 = test: NCI-60 SRB assay, A498 (Renal Cancer); assay type: cell-based, human; conditions: 10 µM, 48 h
Method: as §1, §2

ACHN = test: NCI-60 SRB assay, ACHN (Renal Cancer); assay type: cell-based, human; conditions: 10 µM, 48 h
Method: as §1, §2

RXF 393 = test: NCI-60 SRB assay, RXF 393 (Renal Cancer); assay type: cell-based, human; conditions: 10 µM, 48 h
Method: as §1, §2

SN12C = test: NCI-60 SRB assay, SN12C (Renal Cancer); assay type: cell-based, human; conditions: 10 µM, 48 h
Method: as §1, §2

PC-3 = test: NCI-60 SRB assay, PC-3 (Prostate Cancer); assay type: cell-based, human; conditions: 10 µM, 48 h
Method: as §1, §2

BT-549 = test: NCI-60 SRB assay, BT-549 (Breast Cancer); assay type: cell-based, human; conditions: 10 µM, 48 h
Method: as §1, §2

With `[N-]=[N+]=NCCCC[C@@H]1NC(c2ccc(Br)cc2)=Nc2nc3ccccn3c2C1=O` [Compound 16, (4S)-4-(4-azidobutyl)-2-(4-bromophenyl)-3,4-dihydro-5H-pyrido[1’,2’:1,2]imidazo[4,5-d][1,3]diazepin-5-one] the “Mean G% (mean growth over the panel)” value [1] was 91.77%, the “Mean G% - G%” value (CCRF-CEM) was -6,17% and the G% (CCRF-CEM; growth vs untreated control) was 97,94%. For the same molecule, the “Mean G% - G%” value (EKVX) was 12,19%, the G% (EKVX; growth vs untreated control) was 79,58% and the “Mean G% - G%” value (HOP-92) was -11,05%. For the same molecule, the G% (HOP-92; growth vs untreated control) was 102,82%, the “Mean G% - G%” value (NCI-H322M) was 0,41% and the G% (NCI-H322M; growth vs untreated control) was 91,36%. For the same molecule, the “Mean G% - G%” value (NCI-H522) was 7,01%, the G% (NCI-H522; growth vs untreated control) was 84,76% and the “Mean G% - G%” value (HCC-2998) was -20,61%. For the same molecule, the G% (HCC-2998; growth vs untreated control) was 112,38%, the “Mean G% - G%” value (HCT-15) was -6,56% and the G% (HCT-15; growth vs untreated control) was 98,33%. The “Mean G% - G%” value (SW-620) was -0,19%, the G% (SW-620; growth vs untreated control) was 91,96% and the “Mean G% - G%” value (SF-268) was 1,04%. The G% (SF-268; growth vs untreated control) was 90,73%, the “Mean G% - G%” value (SNB-19) was -3,35% and the G% (SNB-19; growth vs untreated control) was 95,12%. The “Mean G% - G%” value (SNB-75) was 4,12%, the G% (SNB-75; growth vs untreated control) was 87,65% and the “Mean G% - G%” value (U251) was 0,74%. The G% (U251; growth vs untreated control) was 91,03%, the “Mean G% - G%” value (M14) was -14,11% and the G% (M14; growth vs untreated control) was 105,88%. The “Mean G% - G%” value (SK-MEL-2) was -16,61%, the G% (SK-MEL-2; growth vs untreated control) was 108,38% and the “Mean G% - G%” value (UACC-257) was 5,48%. The G% (UACC-257; growth vs untreated control) was 86,29%, the “Mean G% - G%” value (UACC-62) was 11,94% and the G% (UACC-62; growth vs untreated control) was 79,83%. For the same molecule, the “Mean G% - G%” value (OVCAR-3) was -11,51%, the G% (OVCAR-3; growth vs untreated control) was 103,28% and the “Mean G% - G%” value (OVCAR-5) was -11,70%. The G% (OVCAR-5; growth vs untreated control) was 103,47%, the “Mean G% - G%” value (786-0) was 0,98% and the G% (786-0; growth vs untreated control) was 90,79%. The “Mean G% - G%” value (A498) was 8,90%, the G% (A498; growth vs untreated control) was 82,87% and the “Mean G% - G%” value (ACHN) was 3,57%. The G% (ACHN; growth vs untreated control) was 88,20%, the “Mean G% - G%” value (RXF 393) was 10,83% and the G% (RXF 393; growth vs untreated control) was 80,94%. For the same molecule, the “Mean G% - G%” value (SN12C) was -4,64%, the G% (SN12C; growth vs untreated control) was 96,41% and the “Mean G% - G%” value (PC-3) was -10,51%. The G% (PC-3; growth vs untreated control) was 102,28%, the “Mean G% - G%” value (BT-549) was -13,82% and the G% (BT-549; growth vs untreated control) was 105,59%. It also gave a melting point of 127 to 128 °C.
